T/C data for 18 compounds are collected here from PubChem BioAssay AID328 (DTP/NCI, 2004).

Several values for one entry are separate records, joined by “and”; a condition that tells them apart may be missing. Equal entries are not always repeated. Inconclusive results and toxic doses are left out.

In the assay the test system is BDF1 mice, P388 leukemia ip, median survival T/C. Description: NCI In Vivo Anticancer Drug Screen. Data for tumor model P388 Leukemia (intraperitoneal) in B6D2F1 (BDF1) mice. The conditions noted are these: endpoint: median survival time, higher = longer survival. An outline of the steps:
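Vehicle-dosed animals serve as the reference; survival of compound-dosed, tumour-implanted mice is divided by it.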

[1] abbreviates: dose: 50.0 mg/kg/injection, schedule: Q01DX009 (ip), vehicle: saline with Tween-80.
Setting [2] is: dose: 100.0 mg/kg/injection, schedule: Q01DX009 (ip), vehicle: saline with Tween-80.
Where [3] appears, read: dose: 200.0 mg/kg/injection, schedule: Q01DX009 (ip), vehicle: saline with Tween-80.
Setting [4] is: dose: 12.5 mg/kg/injection, schedule: Q04DX003 (ip), vehicle: saline.
[5] abbreviates: dose: 25.0 mg/kg/injection, schedule: Q01DX009 (ip), vehicle: saline.
Setting [6] is: dose: 25.0 mg/kg/injection, schedule: Q04DX003 (ip), vehicle: saline.
Where [7] appears, read: dose: 50.0 mg/kg/injection, schedule: Q04DX003 (ip), vehicle: saline.
[8] abbreviates: dose: 75.0 mg/kg/injection, schedule: Q01DX009 (ip), vehicle: saline.
The mark [9] stands for this setting: dose: 37.5 mg/kg/injection, schedule: Q01DX009 (ip), vehicle: saline.
Setting [10] is: dose: 75.0 mg/kg/injection, schedule: Q04DX003 (ip), vehicle: saline.
[11] abbreviates: dose: 100.0 mg/kg/injection, schedule: Q04DX003 (ip), vehicle: saline with Tween-80.
[12] abbreviates: dose: 100.0 mg/kg/injection, schedule: Q01DX009 (ip), vehicle: Klucel (hydroxypropylcellulose) (HPC).
[13] abbreviates: dose: 100.0 mg/kg/injection, schedule: Q04DX003 (ip), vehicle: Klucel (hydroxypropylcellulose) (HPC).
[14] abbreviates: dose: 200.0 mg/kg/injection, schedule: Q01DX009 (ip), vehicle: Klucel (hydroxypropylcellulose) (HPC).
[15] abbreviates: dose: 50.0 mg/kg/injection, schedule: Q01DX009 (ip), vehicle: Klucel (hydroxypropylcellulose) (HPC).
The mark [16] stands for this setting: dose: 200.0 mg/kg/injection, schedule: Q04DX003 (ip), vehicle: Klucel (hydroxypropylcellulose) (HPC).

Regarding `CC[C@H]1CN2CCc3cc(OC)c(OC)cc3[C@@H]2C[C@@H]1C[C@@H]1c2cc(OC)c(OC)cc2CCN1CCN(CCCl)CCCl`, the T/C by setting is: (dose: 4.3 mg/kg/injection, schedule: Q04DX003 (ip), vehicle: saline with Tween-80) 121 % of control; (dose: 6.48 mg/kg/injection, schedule: Q04DX003 (ip), vehicle: saline with Tween-80) 108 % of control; (dose: 10.8 mg/kg/injection, schedule: Q04DX003 (ip), vehicle: saline with Tween-80) 119 % of control; (dose: 12.0 mg/kg/injection, schedule: Q04DX003 (ip), vehicle: saline with Tween-80) 153 % of control; (dose: 20.0 mg/kg/injection, schedule: Q04DX003 (ip), vehicle: saline with Tween-80) 157 % of control.
In the case of `OC(c1cc(C(F)(F)F)nc2c(F)cccc12)C1CCCCN1` (stereo unspecified), the T/C was 91 % of control (dose: 100.0 mg/kg/injection, schedule: Q01DX001 (ip), vehicle: saline with Tween-80); 95 % of control (dose: 200.0 mg/kg/injection, schedule: Q01DX001 (ip), vehicle: saline with Tween-80); 100 % of control (dose: 400.0 mg/kg/injection, schedule: Q01DX001 (ip), vehicle: saline with Tween-80).
Regarding `O=c1nc[nH]c(=O)[nH]1`, the T/C by setting is: (dose: 25.0 mg/kg/injection, schedule: Q01DX009 (ip), vehicle: saline with Tween-80) 97 % of control; under setting [1], 99 % of control; under setting [2], 97 % of control; under setting [3], 104 % of control.
As to `CCCCNC(C)(C)CS`, the T/C (dose: 3.12 mg/kg/injection, schedule: Q04DX003 (ip), vehicle: saline) is 106 % of control; the T/C (dose: 6.25 mg/kg/injection, schedule: Q04DX003 (ip), vehicle: saline) is 115 % of control; the T/C (dose: 12.5 mg/kg/injection, schedule: Q01DX009 (ip), vehicle: saline) is 116 % of control; the T/C under setting [4] is 108 % of control; the T/C under setting [5] was 109 % of control; the T/C under setting [6] is 97 % of control. The T/C reads like this: under setting [7], 101 % of control; (dose: 100.0 mg/kg/injection, schedule: Q04DX003 (ip), vehicle: saline) 92 % of control.
As to `O=C(O)C1OC1C(=O)O` (stereo unspecified), the T/C reads like this: under setting [8], 90 % of control; (dose: 150.0 mg/kg/injection, schedule: Q01DX009 (ip), vehicle: saline) 100 % of control; (dose: 300.0 mg/kg/injection, schedule: Q01DX009 (ip), vehicle: saline) 100 % of control.
For `N/C(=N\Cl)C(Cl)(Cl)Cl`, the T/C is 109 % of control under setting [4]; 150 % of control under setting [5]; 118 % of control under setting [6]; 118 % of control (dose: 33.0 mg/kg/injection, schedule: Q04DX003 (ip), vehicle: saline); 118 % of control under setting [9]; 118 % of control under setting [7]. Further, the T/C under setting [10] was 118 % of control.
Regarding `COC(=O)C1=C(C(=O)OC)C2C=CC1C1CC(OC(C)=O)C21` (stereo unspecified), the T/C was 113 % of control under setting [1], 113 % of control under setting [2] and 101 % of control under setting [3].
For `CC(CCC(=O)NC12CC3CC(CC(C3)C1)C2)C1CCC2C3C(OC=O)CC4CC(OC=O)CCC4(C)C3CC(OC=O)C12C` (stereo unspecified), the T/C (dose: 12.5 mg/kg/injection, schedule: Q04DX002 (ip), vehicle: saline with Tween-80) was 98 % of control; the T/C (dose: 25.0 mg/kg/injection, schedule: Q04DX002 (ip), vehicle: saline with Tween-80) was 100 % of control; the T/C (dose: 50.0 mg/kg/injection, schedule: Q04DX002 (ip), vehicle: saline with Tween-80) was 100 % of control; the T/C (dose: 200.0 mg/kg/injection, schedule: Q04DX002 (ip), vehicle: saline with Tween-80) is 88 % of control; the T/C (dose: 400.0 mg/kg/injection, schedule: Q04DX002 (ip), vehicle: saline with Tween-80) is 98 % of control.
`Cc1cc(C)c(C#N)c(=O)[nH]1`: the T/C by setting is: (dose: 50.0 mg/kg/injection, schedule: Q01DX009 (ip), vehicle: saline) 99 % of control; (dose: 100.0 mg/kg/injection, schedule: Q01DX009 (ip), vehicle: saline) 94 % of control.
For the compound `Cc1ccc2c(=O)n3cccc3c(=O)[nH]c2c1O`, the T/C is, setting by setting: under setting [11], 103 % of control; (dose: 200.0 mg/kg/injection, schedule: Q04DX003 (ip), vehicle: saline with Tween-80) 100 % of control; (dose: 400.0 mg/kg/injection, schedule: Q04DX003 (ip), vehicle: saline with Tween-80) 96 % of control.
With `CCOCCC(O)CC` (stereo unspecified), the T/C by setting is: (dose: 178.0 mg/kg/injection, schedule: Q04DX003 (ip), vehicle: saline) 100 % of control; (dose: 266.0 mg/kg/injection, schedule: Q04DX003 (ip), vehicle: saline) 100 % of control; (dose: 400.0 mg/kg/injection, schedule: Q04DX003 (ip), vehicle: saline) 100 % of control.
As to `OCC(O)C(O)C(O)c1cnn(-c2ccccc2)n1` (stereo unspecified), the T/C is 96 % of control (dose: 75.0 mg/kg/injection, schedule: Q01DX009 (ip), vehicle: saline with Tween-80); 89 % of control (dose: 150.0 mg/kg/injection, schedule: Q01DX009 (ip), vehicle: saline with Tween-80); 96 % of control (dose: 300.0 mg/kg/injection, schedule: Q01DX009 (ip), vehicle: saline with Tween-80).
As for `O=C1SCCC1CO` (stereo unspecified), under setting [11], the T/C was 114 % of control.
Regarding `CC(C(=O)c1cc(O)c(O)cc1C(O)(C(F)(F)F)C(F)(F)F)C(O)(C(F)(F)F)C(F)(F)F` (stereo unspecified), the T/C under setting [2] was 100 % of control; the T/C under setting [3] is 100 % of control; the T/C (dose: 400.0 mg/kg/injection, schedule: Q01DX009 (ip), vehicle: saline with Tween-80) was 95 % of control.
Regarding `CNc1ccccc1C#N`, the T/C is, setting by setting: under setting [12], 100 % of control; under setting [13], 91 % of control; under setting [14], 100 % of control; (dose: 400.0 mg/kg/injection, schedule: Q04DX003 (ip), vehicle: Klucel (hydroxypropylcellulose) (HPC)) 91 % of control.
`CP(c1ccccc1)c1ccccc1`: the T/C under setting [15] is 109 % of control; the T/C (dose: 50.0 mg/kg/injection, schedule: Q04DX003 (ip), vehicle: Klucel (hydroxypropylcellulose) (HPC)) is 113 % of control; the T/C under setting [13] was 113 % of control; the T/C (dose: 133.0 mg/kg/injection, schedule: Q01DX009 (ip), vehicle: Klucel (hydroxypropylcellulose) (HPC)) is 100 % of control; the T/C under setting [14] was 107 % of control; the T/C under setting [16] is 104 % of control. Besides, the T/C (dose: 300.0 mg/kg/injection, schedule: Q01DX009 (ip), vehicle: Klucel (hydroxypropylcellulose) (HPC)) was 123 % of control.
As for `CCN(CC)CCCC(C)Nc1c2ccc(Cl)cc2nc2ccc(OC)cc12` (stereo unspecified), the T/C by setting is: (dose: 9.37 mg/kg/injection, schedule: Q01DX009 (ip), vehicle: saline) 86 % of control; (dose: 18.75 mg/kg/injection, schedule: Q01DX009 (ip), vehicle: saline) 90 % of control; under setting [9], 100 % of control and 109 % of control; under setting [8], 118 % of control and 120 % of control; under setting [10], 104 % of control; (dose: 99.0 mg/kg/injection, schedule: Q04DX003 (ip), vehicle: saline) 150 % of control. Also, the T/C (dose: 150.0 mg/kg/injection, schedule: Q04DX003 (ip), vehicle: saline) was 172 % of control.
In the case of `CCN1C(=O)CC(=O)N(CC)C1=S`, the T/C reads like this: under setting [15], 95 % of control; under setting [12], 91 % of control; under setting [13], 96 % of control; under setting [14], 104 % of control; under setting [16], 92 % of control.
